# Tests used:
# physchem = settings: water
# [1] = test system: mouse spleen cell cultures; settings: cited from earlier work
# [2] = test system: isolated human mononuclear cells; settings: cited from earlier work
# rhinovirus 1A = settings: in vitro, cells infected with rhinovirus 1A; cited from earlier work
# [3] = test system: respiratory syncytial virus; settings: in vitro, cells infected with respiratory syncytial virus; cited from earlier work
# varicella zoster = settings: in vitro, cells infected with varicella zoster; cited from earlier work
# [4] = test system: spleen, bone marrow, liver, peritoneal exudates and alveolar macrophages; settings: in vitro; cited from earlier work
# primary genital herpes = settings: guinea pigs, single dose; cited from earlier work
# Rift Valley Fever virus = settings: monkeys; cited from earlier work
# Banzi virus = settings: monkeys; cited from earlier work
# [5] = test system: a number of different tumor cell types; settings: mice implanted with tumor cells; cited from earlier work
# [6] = cited from earlier work
# [7] = cited from earlier work; remark: listed apart in the source
# [8] = test system: cutaneous metastatic melanoma; settings: topical, under occlusion; cited from earlier work
# [9] = topical; cited from earlier work
# [10] = cited from earlier work; remark: listed apart in the source
# aqueous solubility = settings: pH 7.4, aqueous buffer
smiles,measurement,setting,value
CC(C)(C)CC(=O)OCC(=O)[C@@]12OC(C)(C)O[C@@H]1C[C@H]1[C@@H]3CCC4=CC(=O)C=C[C@]4(C)[C@@]3(F)[C@@H](O)C[C@@]12C [Triamcinolone hexacetonide],solubility,physchem,3.75 µM
"CC(C)Cn1cnc2c(N)nc3ccccc3c21 [imiquimod, 1-(2-methylpropyl)-1H-imidazo[4,5-c]quinolin-4-amine]","concentration of maximum activity, induced proliferation",[1],1 µg/mL
same,concentration of maximal interferon-alpha production,[2],3 µM
same,plaque reduction,rhinovirus 1A,50%
same,plaque reduction,[3],50%
same,plaque reduction,varicella zoster,50%
same,time of cytokine induction after exposure,[4],1 to 2 h
same,time of peak cytokine induction,[4],8 h
same,treatment of primary genital herpes infections,primary genital herpes,effectively treats
same,efficacy against Rift Valley Fever virus,Rift Valley Fever virus,effective
same,efficacy against Banzi virus,Banzi virus,effective
same,anti-tumor effect,[5],effective anti-tumor agent
same,systemic exposure,[6]; dermal administration,minimal
same,absorption,[6]; oral administration,rapidly absorbed
same,systemic toxicity,[7]; oral administration,significant systemic toxicity
same,skin irritation,[7]; topical administration of creams,significant skin irritation
same,treatment of cutaneous metastatic melanoma,[8],successfully treated
same,effect on contact allergy to dinitrochlorobenzene,[9],enhanced contact allergy
same,solubility in water and common organic solvents,[10]; free base form,almost insoluble
same,solubility at physiologic pH,[10]; physiologic pH,1-2 μg/ml
same,solubility,aqueous solubility,4 µM
